Laboratory results: patent US20250340569A1, “INHIBITORS OF KIF18A AND USES THEREOF” (Insilico Medicine IP Limited, priority 2023, published 2025)

System: OVCAR-3
Experiment: OVCAR3 CTG assay
Type: cell-based
Conditions: Homo sapiens, OVCAR-3, 144 h; CellTiter-Glo, 6 days incubation
Description: Example B2: OVCAR3 CTG Assay
• a) Preparation of complete medium: Added FBS and appropriate additives according to the information sheet provided by the vendor. Mix gently. • b) Checked the cell name and complete medium and passage number marked on the flask. For adherent cell lines, refer to c to k. For suspension cell lines, refer to g to k. • c) Removed and discarded culture medium using a vacuum pump. • d) Briefly rinsed the cell layer with 0.25% (w/v) Trypsin-0.038% (w/v) EDTA solution to remove all traces of serum that contains trypsin inhibitor. • e) Added 3.0 ml of Trypsin-EDTA solution to flask and observed cells under an inverted microscope until cell layer is dispersed. • f) Added 9.0 ml of complete growth medium and aspirated cells by gently pipetting. • g) Transfered the cell suspension to a centrifuge tube and centrifuged at 1000 rpm for 4 minutes. • h) Discarded the supernatant using a vacuum pump. • i) Added appropriate volume of complete medium. Suspended the cell pellet by gently pipetting. • j) Counted the cell numbers with Vi-cell XR and adjusted cells to appropriate density. • k) Added 190 μL of cell suspension to 96-well opaque-walled clear bottom plates according to the planned plate layout and placed the plates in the CO2 incubator overnight.
2) Compound Stock Preparation:
• a) Plate preparation of testing articles:
The compounds were dissolved in DMSO to prepare 10 mM stock solution. The start working concentration (2 mM) was prepared with DMSO.
b) Staurosporine Plate Preparation:
0.4 mM Staurosporine was prepared in DMSO at working concentration.
The 20× compound containing medium was prepared according to the plate map. 10 μL of 20× compound containing medium was added into each well of the assay plates. Centrifuged at 1000 rpm for 1 minute. The total dilution was 200-fold.
3) Cells were Incubated with the Compounds for 6 Days at 5% CO2, 37° C.
Assay Measurement for CTG Assay
1) Preparation of Reagents
• a) Thawed the CellTiter-Glo buffer and equilibrated to room temperature prior to use. • b) Equilibrated the lyophilized CellTiter-Glo substrate to room temperature prior to use. • c) Transfered the appropriate volume of CellTiter-Glo buffer into the amber bottle containing CellTiter-Glo substrate to reconstitute the lyophilized enzyme/substrate mixture. This formed the CellTiter-Glo reagent. • d) Mixed by gently vortexing, swirling or by inverting the contents to obtain a homogeneous solution. The CellTiter-Glo substrate went into solution easily in less than one minute.
• a) Observed the cell morphology under an inverted microscope after corresponding treatment. • b) Equilibrated the plate and its contents to room temperature for approximately 30 minutes. • c) Added 100 μL of CellTiter-Glo reagent to the assay plate by Multidrop Combi instrument. • d) Mixed contents for 10 minutes on an orbital shaker to induce cell lysis. • e) Allowed the plate to incubate at room temperature for 10 minutes to stabilize luminescent signal. • f) Pasted the clear bottom with white back seal and record luminescence with Envision. The settings should be: Luminescence, measurement time 0.1 s.

Compound	IC50 [µM]
O=C1Nc2cccc(n2)N2CCO[C@H](COCC3(C(F)(F)F)CCN(CC3)c3cc(NS(=O)(=O)CCO)ncc31)C2 [EX92-A]	0.01 to 0.1
C[C@@H]1CCCC2(C(F)(F)F)CCN(CC2)c2cc(NS(=O)(=O)CCO)ncc2C(=O)Nc2cccc(n2)NC1 [EX100-A]	0.01 to 0.1
C[C@@H]1CCCC2(C(F)(F)F)CCN(CC2)c2cc(NS(=O)(=O)CCO)c(F)cc2C(=O)Nc2cccc(n2)NC1 [EX105-A]	< 0.01
O=C1Nc2cccc(n2)N2CCO[C@@H](COCC3(C(F)(F)F)CCN(CC3)c3cc(NS(=O)(=O)CCO)ncc31)C2 (stereo in doubt) [EX92-B]	< 0.01
O=C1Nc2ccnc(n2)N2CCO[C@@H](COCC3(C(F)(F)F)CCN(CC3)c3cc(NS(=O)(=O)CCO)ccc31)C2 [EX93-B]	0.01 to 0.1
CCS(=O)(=O)Nc1cc2c(cn1)C(=O)Nc1cccc(n1)NC[C@H](C)CCCC1(C(F)(F)F)CCN2CC1 [EX101-A]	0.01 to 0.1
C[C@@H]1CCCC2(C(F)(F)F)CCN(CC2)c2cc(NS(=O)(=O)CCO)ccc2C(=O)Nc2cccc(n2)NC1 [EX79-A]	0.01 to 0.1
CCS(=O)(=O)Nc1ccc2c(c1)N1CCC(C(F)(F)F)(CC1)COC[C@H](C)CNc1cccc(n1)NC2=O [EX88-B]	< 0.01
C[C@H]1CNc2nc(ccc2F)NC(=O)c2ccc(NS(=O)(=O)CCO)cc2N2CCC(C(F)(F)F)(CC2)COC1 [EX76-A]	< 0.01
O=C1Nc2cccc(n2)N2CCO[C@H](COCC3(C(F)(F)F)CCN(CC3)c3cc(NS(=O)(=O)CCO)ccc31)C2 [EX81-B]	0.01 to 0.1
Cc1cc2nc(n1)NC[C@@H](C(F)(F)F)COCC1(C)CCN(CC1)c1cc(NS(=O)(=O)CCO)ccc1C(=O)N2 [EX32-B]	0.01 to 0.1
Cc1cc2nc(n1)N1CCO[C@H](CCCC3(C(F)(F)F)CCN(CC3)c3cc(NS(=O)(=O)CCO)ccc3C(=O)N2)C1 [EX111-A]	0.1 to 1
C[C@H]1CCCC2(C(F)F)CCN(CC2)c2cc(NS(=O)(=O)CCO)ccc2C(=O)Nc2cccc(n2)NC1 [EX102-B]	< 0.01
CO[C@H]1CNc2cccc(n2)NC(=O)c2ccc(NS(=O)(=O)CCO)cc2N2CCC(C(F)(F)F)(CC2)COC1 [EX78-B]	< 0.01
C[C@H]1C/C=C/C2(C(F)(F)F)CCN(CC2)c2cc(NS(=O)(=O)CCO)ccc2C(=O)Nc2cccc(n2)NC1 [EX85-B]	< 0.01
CCS(=O)(=O)Nc1ccc2c(c1)N1CCC(C(F)(F)F)(CC1)COC[C@@H](C)CNc1cccc(n1)NC2=O [EX88-A]	0.01 to 0.1
CO[C@H]1CNc2nc(C)cc(n2)NC(=O)c2ccc(NS(=O)(=O)CCO)cc2N2CCC(C(F)(F)F)(CC2)COC1 [EX46-A]	0.01 to 0.1
Cc1cc2nc(n1)N1CCO[C@H](COCC3(C(F)(F)F)CCN(CC3)c3cc(NS(=O)(=O)CCO)ccc3C(=O)N2)C1 [EX96-A]	< 0.01
Cc1cc2nc(n1)N1CCO[C@@H](CCCC3(C(F)(F)F)CCN(CC3)c3cc(NS(=O)(=O)CCO)ccc3C(=O)N2)C1 [EX111-B]	0.01 to 0.1
CO[C@@H]1CNc2nc(C)cc(n2)NC(=O)c2ccc(NS(=O)(=O)CCO)cc2N2CCC(C(F)(F)F)(CC2)COC1 [EX46-B]	0.01 to 0.1
Cc1cc2nc(n1)N1CCC(F)(F)[C@H](CCCC3(C)CCN(CC3)c3cc(NS(=O)(=O)CCO)ccc3C(=O)N2)C1 [EX115-A]	0.1 to 1
C[C@H]1COCC2(C(F)(F)F)CCN(CC2)c2cc(NS(=O)(=O)CCO)ccc2C(=O)Nc2cccc(n2)CO1 [EX84-A]	0.01 to 0.1
Cc1cc2nc(n1)NC[C@H](C(F)(F)F)COCC1(C)CCN(CC1)c1cc(NS(=O)(=O)CCO)ccc1C(=O)N2 [EX32-A]	0.01 to 0.1
C[C@H]1CCOCC2(C(F)(F)F)CCN(CC2)c2cc(NS(=O)(=O)CCO)ccc2C(=O)Nc2cccc(n2)N1 [EX107-B]	0.01 to 0.1
C[C@H]1CCCC2(C(F)(F)F)CCN(CC2)c2cc(NS(=O)(=O)CCO)ccc2C(=O)Nc2cccc(n2)NC1 [EX79-B]	< 0.01
C[C@@H]1C/C=C/C2(C(F)(F)F)CCN(CC2)c2cc(NS(=O)(=O)CCO)ccc2C(=O)Nc2cccc(n2)NC1 [EX85-A]	0.01 to 0.1

The remaining lines, values ahead:

IC50 [µM]	Compound
0.01 to 0.1	CC12CCN(CC1)c1cc(S(=O)(=O)NC(C)(C)C)ccc1C(=O)Nc1ccc(=O)n(n1)CCCCOC2 [EX14]
0.01 to 0.1	CC12CCN(CC1)c1cc(NS(=O)(=O)CCO)ccc1C(=O)Nc1cc(C(F)(F)F)nc(n1)NCCCOC2 [EX39]
1 to 10	Cc1cc2nc(n1)NC/C=C/COCC1(C(F)(F)F)CCP(=O)(CC1)c1cc(NS(=O)(=O)CCO)ccc1C(=O)N2 [EX52]
0.01 to 0.1	[2H]C([2H])([2H])N1CCCOCC2(C(F)(F)F)CCN(CC2)c2cc(S(=O)(=O)NCCO)ccc2C(=O)Nc2cccc1n2 [EX70]
< 0.01	Cc1cc2nc(n1)NCC1(CC1)COCC1(C(F)(F)F)CCN(CC1)c1cc(NS(=O)(=O)CCO)ccc1C(=O)N2 [EX43]
0.01 to 0.1	CN1CCCOCC2(C(F)F)CCN(CC2)c2cc(NS(=O)(=O)CCO)ccc2C(=O)Nc2ccnc1n2 [EX95]
0.01 to 0.1	CN1CCC/C=C/C2(C(F)(F)F)CCN(CC2)c2cc(NS(=O)(=O)CCO)ccc2C(=O)Nc2ccnc1n2 [EX91]
0.1 to 1	CN1CCCOCC2(C(F)(F)F)CCN(CC2)c2cc(NS(=O)(=O)CCO)ccc2C(=O)Nc2cncc1n2 [EX75]
0.01 to 0.1	CC12CCN(CC1)c1cc(S(=O)(=O)NC(C)(C)C)ccc1C(=O)Nc1cccc(n1)OCCCOC2 [EX07]
0.01 to 0.1	O=C1Nc2cccc(n2)NCCC/C=C/C2(C(F)(F)F)CCN(CC2)c2cc(NS(=O)(=O)CCO)ccc21 [EX83]
< 0.01	O=C1Nc2cccc(n2)NCCCCCC2(C(F)(F)F)CCN(CC2)c2cc(NS(=O)(=O)CCO)ccc21 [EX103]
0.01 to 0.1	CN1CCCOCC2(C(F)F)CCN(CC2)c2cc(NS(=O)(=O)CCO)ccc2C(=O)Nc2cccc1n2 [EX110]
0.01 to 0.1	O=C1Nc2ccc(=O)n(n2)CCCCCCC2(C(F)(F)F)CCN(CC2)c2cc(NS(=O)(=O)CCO)ccc21 [EX64]
0.01 to 0.1	[2H]C([2H])([2H])N1CCCOCC2(C(F)(F)F)CCN(CC2)c2cc(NS(=O)(=O)CCO)ccc2C(=O)Nc2ccc(F)c1n2 [EX61]
1 to 10	CN1CCC2(C(F)(F)F)CCN(CC2)c2cc(NS(=O)(=O)CCO)ccc2C(=O)Nc2cccc(n2)NCC1=O [EX80]
0.1 to 1	CN1CCCOCC2(C(F)(F)F)CCN(CC2)c2cc(NS(=O)(=O)CCO)ccc2C(=O)Nc2cc(Cl)cc1n2 [EX99]
0.01 to 0.1	CN1CCCOCC2(C(F)(F)F)CCN(CC2)c2cc(NS(=O)(=O)CCO)cnc2C(=O)Nc2cccc1n2 [EX86]
0.01 to 0.1	CN1CCCCCC2(C(F)(F)F)CCN(CC2)c2cc(NS(=O)(=O)CCO)c(F)cc2C(=O)Nc2cccc1n2 [EX104]
0.01 to 0.1	Cc1cc2nc(n1)NC1CC(C1)OCC1(C(F)(F)F)CCN(CC1)c1cc(NS(=O)(=O)CCO)ccc1C(=O)N2 [EX53]
0.01 to 0.1	CC1CNc2cccc(n2)NC(=O)c2ccc(NS(=O)(=O)CCO)cc2N2CCC(C(F)(F)F)(CC2)COC1 (centres unmarked) [EX56]
0.01 to 0.1	O=C1Nc2cccc(n2)NCC2(CC2)COCC2(C(F)(F)F)CCN(CC2)c2cc(NS(=O)(=O)CCO)ccc21 [EX68]
0.01 to 0.1	O=C1Nc2cccc(n2)NCC(F)(F)COCC2(C(F)(F)F)CCN(CC2)c2cc(NS(=O)(=O)CCO)ccc21 [EX109]
0.01 to 0.1	[2H]C([2H])([2H])N1CCCOCC2(C(F)(F)F)CCN(CC2)c2cc(S(=O)(=O)NC(C)(C)C)ccc2C(=O)Nc2cccc1n2 [EX69]
0.01 to 0.1	CN1CCCCCC2(C(F)(F)F)CCN(CC2)c2cc(NS(=O)(=O)CCO)ncc2C(=O)Nc2cccc1n2 [EX89]
1 to 10	[2H]C([2H])([2H])N1CCCCOCC2(C(F)(F)F)CCN(CC2)c2cc(NS(=O)(=O)CCO)ccc2C(=O)Nc2cc(C)nc1n2 [EX47]
0.1 to 1	O=C1NCCOCC2(C(F)(F)F)CCN(CC2)c2cc(NS(=O)(=O)CCO)ccc2C(=O)Nc2cccc1n2 [EX49]
0.01 to 0.1	CN1CCCOCC2(C(F)(F)F)CCN(CC2)c2cc(NS(=O)(=O)CCO)ccc2C(=O)Nc2cccc1n2 [EX62]
0.01 to 0.1	O=C1Nc2cccc(n2)NC/C=C\COCC2(C(F)(F)F)CCN(CC2)c2cc(NS(=O)(=O)CCO)ccc21 [EX66]
0.1 to 1	CCS(=O)(=O)Nc1cc2c(cn1)C(=O)Nc1cccc(n1)N(C)CCCCCC1(C(F)(F)F)CCN2CC1 [EX98]
0.1 to 1	Cc1cc2nc(n1)N(C)CCCOCC1(C3CC3)CCN(CC1)c1cc(NS(=O)(=O)CCO)ccc1C(=O)N2 [EX41]
